Data published in patent publication US6359010B1, “Methods of treating anxiety and mood disorders with oleamide” (priority 1999, dated 2002).
Read-outs that look alike come from different tables or passages of the source.

Key:
rat 5-HT2 receptor = conditions: oocytes expressing the rat 5-HT2 receptor, cited from earlier work
[1] = tested on: CRH mRNA in cloned hypothalamic IVB cells; experiment: CRH mRNA detection by Northern hybridization in clone IVB cells; type: cell-based, rat; conditions: 0 mM to 10 mM oleamide, 20 hours incubation, densitometry normalized to 28S, vs vehicle
Procedure: (§1) Embryonic day 19 Sprague Dawley rats were humanely dissected from pregnant rats and decapitated as described by Kasckow et al. (1997). The hypothalamus was removed and sliced. Hypothalamic slices were placed in phosphate buffered saline (PBS: NaCl, 137 mM; Na2HPO4, 21 mM; KH2PO4, 29 mM; KCl, 1.2 mM; pH 7.3). Cells were dissociated for 10-15 minutes in 0.25% trypsin containing 75 units/ml of DNAse in serum-free media (SFM) consisting of a mixture of Dulbecco's modified essential medium and Ham's F-12 (1:1, v/v from Gibco) supplemented with 14 mM glucose, 15 mM NaHCO3, 5 mM Hepes and 0.05 U/ml of penicillin streptomycin (Sigma). […]
(§2) Virus producer cell line γCRE/pZIPTEX was propagated at 1×10^6 cells per 100 mm tissue culture dish in the same media used for dissociated hypothalamic cultures (SFM+7.5% fetal bovine serum). […] One cell was selected on the basis of CRH peptide production which was monitored by radioimmunoassay (described below). […]
Total RNA was isolated using the PUREscript RNA isolation kit (Gentra Systems, Minneapolis, Minn.). […] A Foto/Eclipse Imager (Fotodyne Inc., Hartland, Wis.) interfaced with Power Macintosh 8100/110 using NIH ImageQuant analysis software was utilized for densitometric quantitation of the mRNA bands.
(§3) The quantitative data obtained were expressed as mean±standard error. […]

[2] = tested on: CRH release from cloned hypothalamic IVB cells; experiment: CRH release from clone IVB cells by radioimmunoassay; type: cell-based, rat
Procedure: as §1, §2
RIA for CRH was performed according to the protocol provided by IgG Corporation (Nashville, Tenn.) utilizing the reagents provided. […] Radioactivity of the pellet was measured using a Packard Multi-Prias 4 gamma counter (Packard Instruments, Downers, Ill.).
as §3

rats [3] = experiment: Elevated plus maze; type: in vivo, rat
Procedure: Methods for elevated plus maze testing were as follows: Based on Lister (1987), a 2 feet-4 arm radial maze consisting of 2 opposing enclosed arms (30 cm high×30 cm long×5 cm wide) and 2 opposing exposed arms (30 cm×5 cm) was constructed and was elevated on a pedestal 30 cm above the surface of a table and situated in the center of a dimly lit room. Testing was conducted in a quiet, dedicated room that was dimmed to provide 22 to 350 lux of illumination on the exposed arms of the maze and less than 1 lux within the enclosed arms. Animals were placed facing towards the enclosed arm in the center of the plus maze. […] (1992 , 1994). We assessed time in open arms and closed arms, total number of entries and rearings, based on Windle et al. (1997). All observers were blind to treatment to remove any investigator bias.

rats [4] = conditions: cited from earlier work
GABAA receptor = conditions: cited from earlier work
[5] = tested on: N-methyl-D-aspartate (NDMA) receptor; conditions: cited from earlier work
5HT3 receptor = target: T1, 5HT3 receptor (Homo sapiens, UniProt P46098); conditions: cited from earlier work
T1 sequence (P46098 24-478): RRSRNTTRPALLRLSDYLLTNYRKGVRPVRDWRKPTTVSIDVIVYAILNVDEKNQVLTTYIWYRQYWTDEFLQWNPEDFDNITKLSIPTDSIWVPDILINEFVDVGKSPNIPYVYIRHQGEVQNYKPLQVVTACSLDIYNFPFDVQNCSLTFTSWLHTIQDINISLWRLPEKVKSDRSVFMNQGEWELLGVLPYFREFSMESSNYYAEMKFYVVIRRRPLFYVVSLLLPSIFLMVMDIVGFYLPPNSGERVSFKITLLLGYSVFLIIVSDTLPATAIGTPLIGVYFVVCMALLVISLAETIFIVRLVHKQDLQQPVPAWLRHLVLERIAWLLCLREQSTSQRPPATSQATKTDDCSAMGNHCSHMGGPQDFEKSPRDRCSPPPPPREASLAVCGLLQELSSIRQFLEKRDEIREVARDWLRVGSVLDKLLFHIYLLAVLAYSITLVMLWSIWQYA

[6] = tested on: c-fos mRNA in brain areas; conditions: IP, rodents, cited from earlier work
5HT2 = conditions: in vivo evidence; cited from earlier work

SMILES | effect on 5-HT-elicited currents (rat 5-HT2 receptor) | CRH mRNA (CRH synthesis) [1] | CRH mRNA (CRH synthesis) ([1]; listed as Oleamide) | immunoreactive CRH (CRH-LI) release ([2]; cloned IVB cells, 10 μM oleamide vs vehicle, n=9) | release of CRH ([2]; cloned hypothalamic IVB cells, concentration dependence) | exploratory behavior (rats [3]; 2 mg dose, rats approx. 250 g, n=10 per group) | total number of entries to both open and closed arm (rats [3]; 2 mg dose, rats, relative to vehicle, P=0.0241) | Rearings (mean) (rats [3]; 5 min of testing, 2 mg dose, rats, control 8.2, P=0.002) | Rearings (mean) (rats [3]; 10 min of testing, 2 mg dose, rats, control 15, P=0.01) | overall activity (rats [3]; IP dosing) | sleep latency (rats [4]; doses between 5 and 150 mg) | duration of induced sleep (rats [4]; intraperitoneal, doses between 5 and 50 mg) [h] | direct effects on 5-HT2 receptor (rat 5-HT2 receptor; without 5-HT) | effects on GABAA receptor (GABAA receptor) | effects on NMDA receptor [5] | effects on 5HT3 receptor (5HT3 receptor) | activation of brain areas (transient induction of c-fos mRNA) ([6]; 1 mg/kg) | activation of brain areas (transient induction of c-fos mRNA) ([6]; 5 or 10 mg/kg) | 5HT2 function in vivo (5HT2)
CCCCCCCCCCCCCCCCCC(N)=O [octadecanamide, reference compound] | opposite those of oleamide | – | – | – | – | – | – | – | – | – | – | – | – | – | – | – | – | – | –
CCCCCCCC/C=C\CCCCCCCC(N)=O [oleamide, cis-9,10-octadecenoamide] | markedly potentiates | concentration-dependent manner | increased CRH mRNA | significant increase | significant concentration-dependent increases | overall increase in exploratory behavior | approximately doubled | 17.2 | 24 | decreasing overall activity | reduce sleep latency | 1 to 2.5 | no significant direct effects | no significant effects | no significant effects | no significant effects | not | activation of multiple brain areas | indirectly potentiates
CCCCCCCC/C=C\CCCCCCCC(=O)O [oleic acid, reference compound] | does not have any effect | – | – | – | – | – | – | – | – | – | – | – | – | – | – | – | – | – | –
